Like-named read-outs stand apart in the source and are kept apart here.

Holding throughout (type): biochemical
One experiment concerns the target PI3K-alpha (Homo sapiens, UniProt P42336). Nature of the experiment: PI3K-alpha fluorescence polarization assay. A general note: Fluorescence polarisation rises when a labelled molecule tumbles more slowly, as on binding a larger partner.
The next experiment concerns the target PI3K-beta (Homo sapiens, UniProt P42338). Nature of the experiment: PI3K-beta fluorescence polarization assay. To be noted: read-out: PI3Kβ Avg. IC50. The protocol:
PI3K-Alpha, PI3K-Beta, PI3K-Gamma, and PI3K-delta Fluorescence Polarization Assay Protocols
PI3-Kinase reactions were performed in 5 mM HEPES, pH 7, 2.5 mM MgCl2, and 25 μM ATP, with diC8-PI(4,5)P2 (Echelon, Salt Lake City Utah) as substrate. Nunc 384-well black polypropylene fluorescent plates were used for PI3K assays. Reactions were quenched by the addition of EDTA to a final concentration of 10 mM. Final reaction volumes were 10 μl. For evaluation of PI3K inhibitors, 5 ng of enzyme (PI3K-alpha, beta, gamma, or delta) and 2.5 μM of substrate was used per […] reaction volume, and inhibitor concentrations ranged from 100 μM to 20 μM; the final level of DMSO in reactions never exceeded 2%. Reactions were allowed to proceed for one hour at 25° C. After 1 hour, GST-tagged GRP1 (general receptor for phosphoinositides) PH domain fusion protein was added to a final concentration of 100 nM, and BODIPY-TMRI(1,3,4,5)P4 (Echelon) was also added to a final concentration of 5 nM. Final sample volumes were 25 μl with a final DMSO concentration of 0.8%. Assay Plates were read on Perkin-Elmer Envision plate readers with appropriate filters for Tamra [BODIPY-TMRI(1,3,4,5)P4]. Data obtained were used to calculate enzymatic activity and enzyme inhibition by inhibitor compounds.

The target of another experiment is PI3K-gamma (Homo sapiens, UniProt P48736). The experiment is described as follows: PI3K-gamma fluorescence polarization assay. The settings on record: PI3Kγ Avg. IC50. A digest of the protocol:
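Each isoform (5 ng) phosphorylated 2.5 μM diC8-PI(4,5)P2 at 25 μM ATP for one hour at 25° C in the presence of inhibitor. Reactions were then stopped with EDTA, and product was detected by fluorescence polarization using a GST-GRP1 PH domain and a BODIPY-TMR-labelled IP4 tracer.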

In a further experiment the target is PI3K-delta (Homo sapiens, UniProt O00329). The experiment is described as follows: PI3K-delta fluorescence polarization assay. The settings on record: read-out: PI3Kδ Avg. IC50.
PI3K-delta, sequence (O00329 whole entry, species assumed): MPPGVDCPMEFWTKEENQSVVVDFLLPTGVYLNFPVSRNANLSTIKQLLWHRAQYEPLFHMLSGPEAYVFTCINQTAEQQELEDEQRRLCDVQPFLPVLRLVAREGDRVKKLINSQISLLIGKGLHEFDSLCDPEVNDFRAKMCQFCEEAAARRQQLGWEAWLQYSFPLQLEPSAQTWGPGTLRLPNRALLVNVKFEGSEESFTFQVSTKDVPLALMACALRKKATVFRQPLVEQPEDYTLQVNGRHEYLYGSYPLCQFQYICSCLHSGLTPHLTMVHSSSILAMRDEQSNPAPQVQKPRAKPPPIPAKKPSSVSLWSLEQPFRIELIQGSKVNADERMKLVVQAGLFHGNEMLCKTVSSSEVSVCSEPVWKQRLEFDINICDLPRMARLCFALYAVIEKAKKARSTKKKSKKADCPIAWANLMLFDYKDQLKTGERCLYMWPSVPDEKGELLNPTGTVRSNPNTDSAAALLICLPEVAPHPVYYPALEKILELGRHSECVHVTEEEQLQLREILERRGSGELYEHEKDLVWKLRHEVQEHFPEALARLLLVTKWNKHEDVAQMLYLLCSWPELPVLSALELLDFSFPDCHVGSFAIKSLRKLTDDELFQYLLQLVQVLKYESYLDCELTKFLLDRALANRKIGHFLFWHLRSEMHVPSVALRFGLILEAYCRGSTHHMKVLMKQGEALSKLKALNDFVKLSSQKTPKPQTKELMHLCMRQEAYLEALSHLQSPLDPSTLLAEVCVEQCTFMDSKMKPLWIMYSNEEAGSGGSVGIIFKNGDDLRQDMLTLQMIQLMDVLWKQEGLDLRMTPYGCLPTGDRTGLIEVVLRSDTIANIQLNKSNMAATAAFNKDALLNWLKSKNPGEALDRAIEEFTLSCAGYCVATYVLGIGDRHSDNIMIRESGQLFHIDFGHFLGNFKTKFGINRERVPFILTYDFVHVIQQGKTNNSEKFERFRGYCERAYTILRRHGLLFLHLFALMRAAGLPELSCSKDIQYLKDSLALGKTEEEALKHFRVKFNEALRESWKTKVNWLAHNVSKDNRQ
PI3K-delta, sequence (P27986 whole entry partner, species assumed): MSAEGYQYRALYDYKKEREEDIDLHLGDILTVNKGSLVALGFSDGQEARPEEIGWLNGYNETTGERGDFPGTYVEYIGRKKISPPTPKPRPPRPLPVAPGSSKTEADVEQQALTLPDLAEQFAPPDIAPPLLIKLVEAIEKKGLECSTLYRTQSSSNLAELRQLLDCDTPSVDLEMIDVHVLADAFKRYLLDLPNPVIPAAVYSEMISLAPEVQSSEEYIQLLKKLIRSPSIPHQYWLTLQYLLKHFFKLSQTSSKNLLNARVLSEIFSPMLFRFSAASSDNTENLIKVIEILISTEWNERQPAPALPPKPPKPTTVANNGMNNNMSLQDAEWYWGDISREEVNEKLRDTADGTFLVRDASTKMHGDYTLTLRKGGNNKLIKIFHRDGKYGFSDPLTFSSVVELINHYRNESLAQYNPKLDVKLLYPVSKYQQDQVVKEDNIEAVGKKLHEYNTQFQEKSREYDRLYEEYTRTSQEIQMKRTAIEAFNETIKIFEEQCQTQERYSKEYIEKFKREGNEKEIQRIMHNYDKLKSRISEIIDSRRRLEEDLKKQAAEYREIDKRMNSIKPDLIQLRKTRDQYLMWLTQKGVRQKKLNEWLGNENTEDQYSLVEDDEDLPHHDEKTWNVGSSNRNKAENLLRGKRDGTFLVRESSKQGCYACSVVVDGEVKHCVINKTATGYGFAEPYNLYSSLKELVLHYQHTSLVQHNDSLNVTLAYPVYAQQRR
A further experiment has as its target T1, human TOR (Homo sapiens, UniProt P42345).
T1 construct: FLAG
Nature of the experiment: mTOR enzyme assay (DELFIA, His6-S6K substrate). The settings on record: read-out: mTOR Kinase Avg. IC50.

PI3K-alpha, sequence (P42336 whole entry, species assumed): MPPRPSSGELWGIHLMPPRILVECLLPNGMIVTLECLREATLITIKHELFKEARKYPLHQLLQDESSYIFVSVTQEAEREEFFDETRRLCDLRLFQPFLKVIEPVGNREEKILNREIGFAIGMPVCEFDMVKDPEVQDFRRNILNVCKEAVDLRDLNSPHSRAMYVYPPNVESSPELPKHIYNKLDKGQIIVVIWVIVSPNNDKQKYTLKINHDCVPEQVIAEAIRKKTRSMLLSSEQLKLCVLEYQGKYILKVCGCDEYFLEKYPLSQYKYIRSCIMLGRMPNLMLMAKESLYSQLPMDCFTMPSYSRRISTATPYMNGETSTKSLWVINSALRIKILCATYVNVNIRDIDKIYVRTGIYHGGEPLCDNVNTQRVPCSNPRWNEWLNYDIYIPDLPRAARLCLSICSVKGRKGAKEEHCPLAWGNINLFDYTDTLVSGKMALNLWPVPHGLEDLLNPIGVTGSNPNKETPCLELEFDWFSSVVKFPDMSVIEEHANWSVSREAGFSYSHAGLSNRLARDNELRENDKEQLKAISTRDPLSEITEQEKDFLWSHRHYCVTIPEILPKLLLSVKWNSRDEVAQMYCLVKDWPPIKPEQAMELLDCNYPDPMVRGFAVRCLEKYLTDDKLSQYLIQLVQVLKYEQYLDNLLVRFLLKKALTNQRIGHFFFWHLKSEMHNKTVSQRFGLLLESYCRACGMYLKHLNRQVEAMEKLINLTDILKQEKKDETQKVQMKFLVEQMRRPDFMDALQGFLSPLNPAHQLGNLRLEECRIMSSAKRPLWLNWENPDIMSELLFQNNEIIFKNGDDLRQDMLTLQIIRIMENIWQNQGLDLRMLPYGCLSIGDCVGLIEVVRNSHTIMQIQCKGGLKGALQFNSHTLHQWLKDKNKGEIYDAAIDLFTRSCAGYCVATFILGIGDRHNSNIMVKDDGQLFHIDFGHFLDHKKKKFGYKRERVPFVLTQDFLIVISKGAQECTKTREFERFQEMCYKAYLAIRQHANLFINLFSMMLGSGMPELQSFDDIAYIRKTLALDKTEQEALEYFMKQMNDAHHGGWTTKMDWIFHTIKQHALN
PI3K-alpha, sequence (P27986 whole entry partner, species assumed): as the sequence (P27986 whole entry partner, species assumed) above
PI3K-gamma, sequence (P48736 whole entry, species assumed, the tested form may be a part, canonical isoform): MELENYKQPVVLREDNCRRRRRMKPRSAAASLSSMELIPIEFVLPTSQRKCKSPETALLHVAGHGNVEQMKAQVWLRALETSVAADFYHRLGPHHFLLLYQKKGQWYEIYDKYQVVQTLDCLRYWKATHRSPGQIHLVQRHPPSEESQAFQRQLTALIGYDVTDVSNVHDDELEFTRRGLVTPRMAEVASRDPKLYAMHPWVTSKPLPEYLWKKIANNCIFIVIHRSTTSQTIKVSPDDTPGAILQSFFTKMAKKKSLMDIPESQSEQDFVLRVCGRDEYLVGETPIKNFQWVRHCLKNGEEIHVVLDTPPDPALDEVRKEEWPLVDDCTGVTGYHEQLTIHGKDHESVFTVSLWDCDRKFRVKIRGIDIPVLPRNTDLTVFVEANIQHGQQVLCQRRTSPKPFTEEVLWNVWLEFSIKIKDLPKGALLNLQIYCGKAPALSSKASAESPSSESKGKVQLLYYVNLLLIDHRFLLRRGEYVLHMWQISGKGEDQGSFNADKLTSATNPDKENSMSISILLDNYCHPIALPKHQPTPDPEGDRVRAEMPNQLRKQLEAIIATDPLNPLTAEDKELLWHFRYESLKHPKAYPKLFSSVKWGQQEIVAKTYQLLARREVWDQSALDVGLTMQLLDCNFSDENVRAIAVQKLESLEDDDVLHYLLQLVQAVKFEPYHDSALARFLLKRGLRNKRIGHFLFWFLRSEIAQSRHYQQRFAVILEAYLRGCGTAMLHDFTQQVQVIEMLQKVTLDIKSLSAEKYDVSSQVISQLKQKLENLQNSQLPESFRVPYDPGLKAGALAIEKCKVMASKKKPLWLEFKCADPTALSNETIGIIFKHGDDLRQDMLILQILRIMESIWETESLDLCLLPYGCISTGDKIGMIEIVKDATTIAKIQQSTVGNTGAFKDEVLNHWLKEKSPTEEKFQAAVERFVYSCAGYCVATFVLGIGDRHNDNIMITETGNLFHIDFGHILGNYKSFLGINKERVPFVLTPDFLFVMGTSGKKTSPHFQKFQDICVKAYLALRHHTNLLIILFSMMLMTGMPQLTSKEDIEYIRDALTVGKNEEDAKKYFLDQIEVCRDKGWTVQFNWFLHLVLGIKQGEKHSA
PI3K-beta, sequence (P42338 whole entry, species assumed): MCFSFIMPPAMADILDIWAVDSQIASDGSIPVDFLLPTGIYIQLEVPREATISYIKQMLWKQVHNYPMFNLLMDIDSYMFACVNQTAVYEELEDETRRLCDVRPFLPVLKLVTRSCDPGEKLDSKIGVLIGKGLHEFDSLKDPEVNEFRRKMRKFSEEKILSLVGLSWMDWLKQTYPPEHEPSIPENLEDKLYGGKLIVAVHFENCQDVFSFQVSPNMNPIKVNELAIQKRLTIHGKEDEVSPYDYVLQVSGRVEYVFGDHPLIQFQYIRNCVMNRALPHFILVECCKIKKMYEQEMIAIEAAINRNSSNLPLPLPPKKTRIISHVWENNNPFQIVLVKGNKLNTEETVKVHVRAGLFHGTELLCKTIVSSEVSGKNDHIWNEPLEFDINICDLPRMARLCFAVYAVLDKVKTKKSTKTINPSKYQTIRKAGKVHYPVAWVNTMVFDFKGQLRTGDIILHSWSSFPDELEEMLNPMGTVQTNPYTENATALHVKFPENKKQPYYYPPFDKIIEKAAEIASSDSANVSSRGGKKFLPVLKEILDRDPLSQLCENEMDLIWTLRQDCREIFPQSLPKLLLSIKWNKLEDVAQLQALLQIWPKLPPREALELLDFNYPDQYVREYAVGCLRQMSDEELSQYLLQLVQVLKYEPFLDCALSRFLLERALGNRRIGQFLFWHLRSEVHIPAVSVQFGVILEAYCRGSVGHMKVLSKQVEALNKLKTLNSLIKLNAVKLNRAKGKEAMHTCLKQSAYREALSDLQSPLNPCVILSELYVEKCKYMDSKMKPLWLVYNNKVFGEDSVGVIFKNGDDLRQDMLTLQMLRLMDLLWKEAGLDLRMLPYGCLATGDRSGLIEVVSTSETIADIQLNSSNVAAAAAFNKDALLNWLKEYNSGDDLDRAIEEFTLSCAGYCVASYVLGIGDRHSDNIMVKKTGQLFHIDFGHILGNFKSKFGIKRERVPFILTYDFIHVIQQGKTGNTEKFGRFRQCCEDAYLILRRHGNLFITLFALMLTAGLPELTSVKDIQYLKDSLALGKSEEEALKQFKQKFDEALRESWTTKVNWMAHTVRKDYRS
PI3K-beta, sequence (P27986 whole entry partner, species assumed): as the sequence (P27986 whole entry partner, species assumed) above

One may read the IC50 as the midpoint of a concentration-inhibition curve. For the molecule `COc1ccc2c(c1)c(C=C1Oc3cc(O)cc(O)c3C1=O)c(C)n2C` [Example 89, 4,6-dihydroxy-2-[(5-methoxy-1,2-dimethyl-1H-indol-3-yl)methylene]-1-benzofuran-3(2H)-one], the IC50 was 6.9 nM against PI3K-alpha (PI3Kα Avg. IC50); 19 nM on PI3K-beta; 54.3 nM at PI3K-gamma; 8 nM on PI3K-delta; 3.5 nM on human TOR.
For the molecule `COc1ccc2[nH]c(-c3cccnc3)c(C=C3Oc4cc(O)cc(O)c4C3=O)c2c1` [Example 91, 4,6-dihydroxy-2-[(5-methoxy-2-pyridin-3-yl-1H-indol-3-yl)methylene]-1-benzofuran-3(2H)-one], the IC50 on PI3K-alpha (read-out: PI3Kα Avg. IC50) was less than 2.2 nM; at PI3K-beta, 5.5 nM; against PI3K-gamma it was 9.5 nM; at PI3K-delta, 1.8 nM; on human TOR, less than 50 nM.
In the case of `Cc1c(C=C2Oc3cc(O)cc(O)c3C2=O)c2ccccc2n1CCCCCl` [Example 94, 2-{[1-(4-chlorobutyl)-2-methyl-1H-indol-3-yl]methylene}-4,6-dihydroxy-1-benzofuran-3(2H)-one], the IC50 was 2240 nM on PI3K-alpha (read-out: PI3Kα Avg. IC50); 671 nM on PI3K-beta; 5860 nM at PI3K-gamma; 1020 nM at PI3K-delta; greater than 5000 nM at human TOR.
`COc1ccc2c(c1)c(C=C1Oc3cc(O)cc(O)c3C1=O)c(C)n2CCCN1CCN(C)CC1` [Example 95, 4,6-dihydroxy-2-({5-methoxy-2-methyl-1-[3-(4-methylpiperazin-1-yl)propyl]-1H-indol-3-yl}methylene)-1-benzofuran-3(2H)-one]: the IC50 on PI3K-alpha (PI3Kα Avg. IC50) is 14.7 nM; on PI3K-beta, 27 nM; against PI3K-gamma it was 402 nM; on PI3K-delta, 2 nM; at human TOR it was 153 nM.
Take `COc1ccc2c(c1)c(C=C1Oc3cc(O)cc(O)c3C1=O)c(C)n2CCCCN1CCN(C)CC1` [Example 96, 4,6-dihydroxy-2-({5-methoxy-2-methyl-1-[4-(4-methylpiperazin-1-yl)butyl]-1H-indol-3-yl}methylene)-1-benzofuran-3(2H)-one]: the IC50 was 11.3 nM on PI3K-alpha (read-out: PI3Kα Avg. IC50); 10 nM on PI3K-beta; 238 nM at PI3K-gamma; 2 nM at PI3K-delta; less than 31 nM on human TOR.
For `COc1ccc2c(c1)c(C=C1Oc3cc(O)cc(O)c3C1=O)c(C)n2CCCCN1CCOCC1` [Example 97, 4,6-dihydroxy-2-{[5-methoxy-2-methyl-1-(4-morpholin-4-ylbutyl)-1H-indol-3-yl]methylene}-1-benzofuran-3(2H)-one] the same measures were 8.7 nM, 9 nM, 138 nM, 0.9 nM and less than 47 nM.
Taken in the same sequence, the figures for `COc1ccc2c(c1)c(C=C1Oc3cc(O)cc(O)c3C1=O)c(C)n2CCCCN1CCN(CCO)CC1` [Example 98, 4,6-dihydroxy-2-[(1-{4-[4-(2-hydroxyethyl)piperazin-1-yl]butyl}-5-methoxy-2-methyl-1H-indol-3-yl)methylene]-1-benzofuran-3(2H)-one] were 9.4 nM, 10.5 nM, 248 nM, 1 nM and 58.5 nM.
For `COc1ccc2c(c1)c(C=C1Oc3cc(O)cc(O)c3C1=O)c(C)n2CCCCN1CCC(N(C)C)C1` (stereo not drawn) [Example 99, 2-[(1-{4-[3-(dimethylamino)pyrrolidin-1-yl]butyl}-5-methoxy-2-methyl-1H-indol-3-yl)methylene]-4,6-dihydroxy-1-benzofuran-3(2H)-one] the same measures were 8.3 nM, 8 nM, 331 nM, 2 nM and 72.5 nM.
Regarding `COc1ccc2c(c1)c(C=C1Oc3cc(O)cc(O)c3C1=O)c(C)n2CCCCN1CCN(CCN2CCOCC2)CC1` [Example 100, 4,6-dihydroxy-2-[(5-methoxy-2-methyl-1-{4-[4-(2-morpholin-4-ylethyl)piperazin-1-yl]butyl}-1H-indol-3-yl)methylene]-1-benzofuran-3(2H)-one], the IC50 came to 12 nM at PI3K-alpha (read-out: PI3Kα Avg. IC50); 12.5 nM at PI3K-beta; 283 nM against PI3K-gamma; 3 nM on PI3K-delta; 55.5 nM at human TOR.
`COc1ccc2c(c1)c(C=C1Oc3cc(O)cc(O)c3C1=O)c(C)n2CCCCN(C)C` [Example 101, 2-({1-[4-(dimethylamino)butyl]-5-methoxy-2-methyl-1H-indol-3-yl}methylene)-4,6-dihydroxy-1-benzofuran-3(2H)-one]: the IC50 at PI3K-alpha (read-out: PI3Kα Avg. IC50) is 5.3 nM; at PI3K-beta it was 6.5 nM; against PI3K-gamma it was 377 nM; at PI3K-delta, 1 nM; on human TOR, 46 nM.
Take `COc1ccc2c(c1)c(C=C1Oc3cc(O)cc(O)c3C1=O)c(C)n2CCCN1CCOCC1` [Example 102, 4,6-dihydroxy-2-{[5-methoxy-2-methyl-1-(3-morpholin-4-ylpropyl)-1H-indol-3-yl]methylene}-1-benzofuran-3(2H)-one]: the IC50 on PI3K-alpha (read-out: PI3Kα Avg. IC50) is 8.5 nM; on PI3K-beta, 45 nM; at PI3K-gamma, 75.5 nM; on PI3K-delta, 1.9 nM; at human TOR, less than 25 nM.
With `COc1ccc2c(c1)c(C=C1Oc3cc(O)cc(O)c3C1=O)c(C)n2CCCN1CCN(CCO)CC1` [Example 103, 4,6-dihydroxy-2-[(1-{3-[4-(2-hydroxyethyl)piperazin-1-yl]propyl}-5-methoxy-2-methyl-1H-indol-3-yl)methylene]-1-benzofuran-3(2H)-one], the IC50 at PI3K-alpha (read-out: PI3Kα Avg. IC50) stood at 6.6 nM; at PI3K-beta it was 22 nM; against PI3K-gamma, 108 nM; on PI3K-delta, 2 nM; on human TOR, 108 nM.
For `COc1ccc2c(c1)c(C=C1Oc3cc(O)cc(O)c3C1=O)c(C)n2CCCN1CCC(N(C)C)C1` (stereo not drawn) [Example 104, 2-[(1-{3-[3-(dimethylamino)pyrrolidin-1-yl]propyl}-5-methoxy-2-methyl-1H-indol-3-yl)methylene]-4,6-dihydroxy-1-benzofuran-3(2H)-one], the IC50 at PI3K-alpha (read-out: PI3Kα Avg. IC50) was determined as 5.7 nM; on PI3K-beta, 19 nM; against PI3K-gamma, 162 nM; at PI3K-delta, 2.3 nM; at human TOR, 130 nM.
Taken in the same sequence, the figures for `COc1ccc2c(c1)c(C=C1Oc3cc(O)cc(O)c3C1=O)c(C)n2CCCN1CCN(CCN2CCOCC2)CC1` [Example 105, 4,6-dihydroxy-2-[(5-methoxy-2-methyl-1-{3-[4-(2-morpholin-4-ylethyl)piperazin-1-yl]propyl}-1H-indol-3-yl)methylene]-1-benzofuran-3(2H)-one] were 9.6 nM, 50.5 nM, 724 nM, 2 nM and 140 nM.
Taken in the same sequence, the figures for `COc1ccc2c(c1)c(C=C1Oc3cc(O)cc(O)c3C1=O)c(C)n2CCCN(C)C` [Example 106, 2-({1-[3-(dimethylamino)propyl]-5-methoxy-2-methyl-1H-indol-3-yl}methylene)-4,6-dihydroxy-1-benzofuran-3(2H)-one] were 5.3 nM, 17.5 nM, 404 nM, 2 nM and 117 nM.
`COc1ccc2c(c1)c(C=C1Oc3cc(O)cc(O)c3C1=O)c(C)n2CCN1CCOCC1` [Example 107, 4,6-dihydroxy-2-{[5-methoxy-2-methyl-1-(2-morpholin-4-ylethyl)-1H-indol-3-yl]methylene}-1-benzofuran-3(2H)-one]: the IC50 on PI3K-alpha (PI3Kα Avg. IC50) was 11.3 nM; on PI3K-beta, 112 nM; against PI3K-gamma, 154 nM; at PI3K-delta, 5.8 nM; on human TOR it was less than 25 nM.
Regarding `COc1ccc2c(c1)c(C=C1Oc3cc(O)cc(O)c3C1=O)c(C)n2CCN1CCN(CCO)CC1` [Example 109, 4,6-dihydroxy-2-[(1-{2-[4-(2-hydroxyethyl)piperazin-1-yl]ethyl}-5-methoxy-2-methyl-1H-indol-3-yl)methylene]-1-benzofuran-3(2H)-one], the IC50 at PI3K-alpha (read-out: PI3Kα Avg. IC50) is 4.3 nM; on PI3K-beta it was 18 nM; on PI3K-gamma, 321 nM; on PI3K-delta it was 2.8 nM; on human TOR it was less than 23 nM.
On to `COc1ccc2c(c1)c(C=C1Oc3cc(O)cc(O)c3C1=O)c(C)n2CCN(C)C` [Example 110, 2-({1-[2-(dimethylamino)ethyl]-5-methoxy-2-methyl-1H-indol-3-yl}methylene)-4,6-dihydroxy-1-benzofuran-3(2H)-one], for which the IC50 was determined as 9.3 nM at PI3K-alpha (read-out: PI3Kα Avg. IC50); 32 nM at PI3K-beta; 283 nM on PI3K-gamma; 6.5 nM at PI3K-delta; 17.5 nM at human TOR.

The values are drawn from patent US20090311217A1, “3-SUBSTITUTED-1H-INDOLE COMPOUNDS, THEIR USE AS MTOR KINASE AND PI3 KINASE INHIBITORS, AND THEIR SYNTHESES” (priority 2008, published 2009).
